Literature values as cited in patent US20100104646A1, “NANOPARTICLE COMPOSITION FOR PREVENTION OF HAIR LOSS AND PROMOTION OF HAIR GROWTH” (priority 2006, published 2010).

Test system: hair loss
Details: clinical studies

## CC(C)(C)NC(=O)[C@H]1CC[C@H]2[C@@H]3CC[C@H]4NC(=O)C=C[C@]4(C)[C@H]3CC[C@]12C [Propecia]
  participants taking the drug in whom hair loss was prevented: 68%
Participants taking the drug
  participants who enjoyed hair regrowth: 66%
